From patent US10688085B2, “Use of statin-based drug for treatment of EML4-ALK-positive non-small cell lung cancer progressing on ALK inhibitor” (University-Industry Foundation, Yonsei University, priority 2016, dated 2020)

What was measured:
[1] = test system: CR pool, CR #1, and CR #3 cell lines; assay: Cell proliferation after adding mevalonate pathway byproducts to cerivastatin-treated cells; assay type: cell-based; settings: CR #1, CR #3, byproduct added after cerivastatin treatment
Description: A statin-based drug is a suppressor of HMG-CoA reductase which is an enzyme converting 3-hydroxy-3-methylglutaryl coenzyme A (HMG-CoA) into mevalonic acid in the mevalonate pathway, and is known as a cholesterol-lowering agent, but is known to affect various intracellular signaling processes by suppressing the production of isoprenoids (Farnesyl pyrophosphate; […] GGPP) acting as a substrate for isoprenylation of a target protein among final byproducts of the mevalonate pathway in addition to cholesterol. Thus, after the present research team treated H3122 parental, CR pool, CR #1, and CR #3 cell lines with cerivastatin in order to see which one of the byproducts mediated by the mevalonate pathway is involved in acquiring resistance to an ALK inhibitor, the proliferation of cells was identified after mevalonate, GGPP, FPP, and squalene, which are byproducts of each step, were each added. The results are illustrated in FIG. 6A.

YAP = assay: Western blot of YAP phosphorylation, crizotinib-resistant cell line; assay type: cell-based
Description: YAP is accumulated in the nucleus to form a complex with TEAD when phosphorylation is suppressed, and is known as an oncogene which promotes the excessive proliferation of cancer cells and the metastasis of cancer by inducing the expression of a gene associated with cancer. In addition, YAP as a transcription factor has been reported to be involved even in the expression of EGFR and an EGFR ligand. Recently, it has been reported that the mevalonate pathway which is an important mechanism in cancer cell metabolism regulates YAP activity, and particularly, geranylgeranylation may directly affect YAP activity. […] The results are illustrated in FIG. 7. FIGS. 7A and 7B identify the expression pattern of YAP when GGPP and […] are treated, respectively through a western blot, and FIG. 7C illustrates whether YAP moves into the nucleus through an immunocytochemistry analysis.

[2] = test system: p21, cleaved PARP, and cleaved caspase 3; assay: Western blot of p21 and apoptosis-related proteins, crizotinib-resistant cell lines; assay type: cell-based
[3] = test system: p21, cleaved caspase 3, PARP, YAP; assay: Western blot of p21, cleaved caspase 3, PARP and YAP, ceritinib-resistant cell line; assay type: cell-based; settings: cell line resistant to ceritinib
[4] = test system: cell line resistant to the ALK inhibitor; assay: Evaluation of antitumor efficacy of statin-based drugs; settings: cell line resistant to the ALK inhibitor versus parental
Description: The results are illustrated in FIG. 4A.

AKT and ERK = assay: Immunoblot of lower and bypass signaling pathway of ALK, ceritinib-resistant cell line; assay type: cell-based; settings: cell line resistant to ceritinib
[5] = test system: cell line that has acquired resistance to crizotinib; assay: Cell survival rate of cell line that has acquired resistance to crizotinib after ALK/EGFR inhibitor treatment; assay type: cell-based; settings: crizotinib-resistant H3122 cell line
Description: Subsequently, studies on the mechanism of acquiring resistance to an ALK inhibitor in the Experimental Examples were carried out by representatively using CR pool, CR #1, and CR #3.

H3122 parental cells = assay: FDA approved drug library growth inhibition selection, parental cells; assay type: cell-based; settings: 1 μM for 72 hours
H3122 CR pool cells = assay: FDA approved drug library growth inhibition selection, resistant cells; assay type: cell-based; settings: 1 μM for 72 hours
EGFR = assay: Western blot of EGFR activity after verteporfin; assay type: cell-based; settings: cell line that has acquired resistance to an ALK inhibitor; pretreatment with verteporfin
Description: The results are illustrated in FIG. 12.

vimentin = assay: Western blot of vimentin expression; assay type: cell-based; settings: cell lines resistant to an ALK inhibitor
Description: The results are illustrated in FIG. 13.

[6] = added to cerivastatin-treated cells

Question: How did the “proliferation of cells suppressed by cerivastatin” value (from here on “proliferation of cells suppressed”) [1] turn out when `CC(C)=CCC/C(C)=C/CC/C(C)=C/COP(=O)(O)OP(=O)(O)O` [FPP, Farnesyl pyrophosphate] was run?
Answer: The value was “did not have any effect”.

Question: How did the “phosphorylation of YAP” value (YAP; added together with cerivastatin) turn out when `CC(C)=CCC/C(C)=C/CC/C(C)=C/CC/C(C)=C/COP(=O)(O)OP(=O)(O)O` [GGPP, Geranylgeranyl pyrophosphate] was run?
Answer: The value was “again reduced”.

Question: And the “expression of cleaved PARP increased by cerivastatin” value [2, 6]?
Answer: Its value is “again decreased”.

Question: What about the “expression of cleaved caspase 3 increased by cerivastatin” value [2, 6] of the same compound?
Answer: Its value is “again decreased”.

Question: What about the “expression of p21 increased by cerivastatin” value [2, 6] of the same compound?
Answer: Its value is “again decreased”.

Question: And the “proliferation of cells suppressed” value [1]?
Answer: Its value is “restored”.

Question: Which “phosphorylation of YAP” value (YAP; western blot, agent alone) does the source give for `COC(=O)[C@H](CC(C)C)NC(=O)c1ccc(NC[C@@H](N)CS)cc1-c1cccc2ccccc12` [GGTI-298] here?
Answer: The value was “increasing”.

Question: And the “expression of cleaved PARP” value ([2]; western blot, agent alone)?
Answer: The value was “concentration dependently induced”.

Question: And the “expression of cleaved caspase 3” value ([2]; western blot, agent alone)?
Answer: Its value is “concentration dependently induced”.

Question: What about the “expression of p21” value ([2]; western blot, agent alone) of the same compound?
Answer: Its value is “concentration dependently induced”.

Question: What about the “expression of PARP” value [3] of the same compound?
Answer: Its value is “concentration-dependently induced”.

Question: And the “expression of p21” value [3]?
Answer: Its value is “concentration-dependently induced”.

Question: Which antitumor efficacies [4] does the source give for `CC(C)c1c(C(=O)Nc2ccccc2)c(-c2ccccc2)c(-c2ccc(F)cc2)n1CC[C@@H](O)C[C@@H](O)CC(=O)O` [atorvastatin] here?
Answer: The antitumor efficacies was “specifically exhibited antitumor efficacies against a cell line resistant to the ALK inhibitor”.

Question: For `Cc1cc(Nc2ncc(Cl)c(Nc3ccccc3S(=O)(=O)C(C)C)n2)c(OC(C)C)cc1C1CCNCC1` [ceritinib], which “activity of AKT” value (AKT and ERK) is on record?
Answer: Its value is “not suppressed”.

Question: And the “activity of ERK” value (AKT and ERK)?
Answer: Its value is “not suppressed”.

Question: And the “proliferation of the cell line that had acquired resistance (cell survival rate)” value [5]?
Answer: Its value is “not suppressed”.

Question: Which growth of cells (H3122 parental cells) does the source give for `CC(=O)O[C@@]12CO[C@@H]1C[C@H](O)[C@@]1(C)C(=O)[C@H](O)C3=C(C)[C@@H](OC(=O)[C@H](O)[C@@H](NC(=O)OC(C)(C)C)c4ccccc4)C[C@@](O)([C@@H](OC(=O)c4ccccc4)[C@H]21)C3(C)C` [docetaxel] here?
Answer: The growth of cells was “suppressed the growth”.

Question: And the growth of cells (H3122 CR pool cells)?
Answer: The growth of cells was “suppressed the growth”.

Question: Which growth of cells (H3122 parental cells) does the source give for `COc1cccc2c1C(=O)c1c(O)c3c(c(O)c1C2=O)C[C@@](O)(C(=O)CO)C[C@@H]3O[C@H]1C[C@H](N)[C@H](O)[C@H](C)O1` [doxorubicin] here?
Answer: Its growth of cells is “suppressed the growth”.

Question: And the growth of cells (H3122 CR pool cells)?
Answer: Its growth of cells is “suppressed the growth”.

Question: `CC(O)(CCO)CC(=O)O` (stereo not shown) [mevalonate] was tested. Which “proliferation of cells suppressed” value [1] did it give?
Answer: Its value is “restored”.

Question: `CC(C)c1nc(N(C)S(C)(=O)=O)nc(-c2ccc(F)cc2)c1/C=C/[C@@H](O)C[C@@H](O)CC(=O)O` [rosuvastatin] was tested. Which antitumor efficacies [4] did it give?
Answer: Its antitumor efficacies is “specifically exhibited antitumor efficacies against a cell line resistant to the ALK inhibitor”.

Question: `CC(C)=CCC/C(C)=C/CC/C(C)=C/CC/C=C(\C)CC/C=C(\C)CCC=C(C)C` [squalene] was tested. Which “proliferation of cells suppressed” value [1] did it give?
Answer: Its value is “did not have any effect”.

Question: With verteporfin as the compound, how does the “activity of EGFR” value (EGFR) read?
Answer: The value was “concentration-dependently suppressed”.

Question: What about the expression of vimentin (vimentin) of the same compound?
Answer: The expression of vimentin was “clearly decreased”.
